In this assay the target is human F508del-CFTR (Homo sapiens, UniProt P13569, DEL508-508). Nature of the assay: F508del-CFTR cell surface expression (corrector activity), DiscoveRx ß-galactosidase complementation chemiluminescence assay in recombinant U2OS cell line.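 On all read-outs here: U2OS cells co-expressing ProLink-tagged F508del-CFTR and a membrane-anchored enzyme acceptor, where more surface CFTR restores β-galactosidase activity measured by chemiluminescence.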 The settings on record: for EC50: EC50, F508del-CFTR cell surface expression, U2OS cells, 16h compound incubation, geomean values; for Emax: U2OS, in relation to Emax of corrector lumacaftor (=100%), arithmetic mean values.
Chain of human F508del-CFTR (P13569 with tags, fused parts or gaps DEL508-508): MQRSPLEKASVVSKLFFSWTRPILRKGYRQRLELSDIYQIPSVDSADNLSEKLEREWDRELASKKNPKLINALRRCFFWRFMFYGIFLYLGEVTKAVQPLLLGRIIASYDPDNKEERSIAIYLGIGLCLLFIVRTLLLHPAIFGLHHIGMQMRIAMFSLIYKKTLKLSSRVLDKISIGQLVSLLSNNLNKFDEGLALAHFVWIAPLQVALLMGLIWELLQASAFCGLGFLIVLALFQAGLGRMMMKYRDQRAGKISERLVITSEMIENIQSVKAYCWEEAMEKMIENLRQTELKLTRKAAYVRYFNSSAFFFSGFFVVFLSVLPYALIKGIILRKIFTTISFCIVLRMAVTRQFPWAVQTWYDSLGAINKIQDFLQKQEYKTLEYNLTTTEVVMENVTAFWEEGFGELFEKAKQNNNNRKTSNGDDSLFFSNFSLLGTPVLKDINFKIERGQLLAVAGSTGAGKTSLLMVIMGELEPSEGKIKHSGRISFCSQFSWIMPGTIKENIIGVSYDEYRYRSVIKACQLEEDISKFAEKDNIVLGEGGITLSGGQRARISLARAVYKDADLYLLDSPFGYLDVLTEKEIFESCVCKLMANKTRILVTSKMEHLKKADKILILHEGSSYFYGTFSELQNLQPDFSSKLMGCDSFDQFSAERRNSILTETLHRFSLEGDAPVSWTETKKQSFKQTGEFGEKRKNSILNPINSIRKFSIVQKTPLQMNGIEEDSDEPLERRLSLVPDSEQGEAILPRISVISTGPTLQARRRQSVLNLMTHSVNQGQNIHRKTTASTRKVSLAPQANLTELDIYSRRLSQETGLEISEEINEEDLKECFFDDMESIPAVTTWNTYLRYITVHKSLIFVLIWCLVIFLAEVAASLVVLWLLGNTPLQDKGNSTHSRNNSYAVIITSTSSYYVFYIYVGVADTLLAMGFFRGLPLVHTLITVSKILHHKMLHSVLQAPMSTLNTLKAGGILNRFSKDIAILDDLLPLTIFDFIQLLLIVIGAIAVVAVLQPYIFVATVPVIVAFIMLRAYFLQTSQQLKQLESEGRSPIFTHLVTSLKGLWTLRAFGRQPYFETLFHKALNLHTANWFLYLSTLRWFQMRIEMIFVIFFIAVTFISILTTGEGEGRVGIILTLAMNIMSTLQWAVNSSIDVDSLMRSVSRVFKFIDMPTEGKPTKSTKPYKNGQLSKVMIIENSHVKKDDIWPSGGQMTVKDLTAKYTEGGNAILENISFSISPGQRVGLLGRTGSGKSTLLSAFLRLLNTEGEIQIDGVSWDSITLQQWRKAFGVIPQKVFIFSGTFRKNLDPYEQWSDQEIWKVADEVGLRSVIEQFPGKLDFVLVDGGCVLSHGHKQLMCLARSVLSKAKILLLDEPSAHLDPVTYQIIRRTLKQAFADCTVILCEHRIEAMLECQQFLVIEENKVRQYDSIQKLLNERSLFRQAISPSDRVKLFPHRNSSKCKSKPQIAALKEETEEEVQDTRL

As a reminder, the EC50 is the concentration needed to bring the measured effect to its halfway point. The term Emax denotes the greatest response seen or fitted, relative to the assay's reference. For the compound `COc1cccc(CCNC(=O)[C@@H]2CC(=O)N(C)[C@@H](CC(C)C)C(=O)N3CCN(CC4CC4)C[C@@H]3C(=O)N[C@H](Cc3ccccc3)COc3ccc4nc(C)oc4c3C(=O)N2)c1` [Example 425, (8S,12S,18aR,21R)-21-benzyl-17-(cyclopropylmethyl)-12-isobutyl-N-(3-methoxyphenethyl)-4,11-dimethyl-6,10,13,19-tetraoxo-6,7,8,9,10,11,12,13,16,17,18,18a,19,20,21,22-hexadecahydro-15H-oxazolo[4′,5′:5,6]benzo[1,2-p]pyrazino[2,1-f][1]oxa[4,7,10,14]tetraazacycloheptadecine-8-carboxamide], the EC50 amounted to 348 nM and the Emax was 364%.
Turning to `Cc1nc2ccc3c(c2o1)C(=O)N[C@H](C(=O)NCCc1cccc(OC(F)F)c1)CC(=O)N(C)[C@@H](CC(C)C)C(=O)N1CCN(CC2CC2)C[C@@H]1C(=O)N[C@H](Cc1ccccc1)CO3` [Example 426, (8S,12S,18aR,21R)-21-benzyl-17-(cyclopropylmethyl)-N-(3-(difluoromethoxy)phenethyl)-12-isobutyl-4,11-dimethyl-6,10,13,19-tetraoxo-6,7,8,9,10,11,12,13,16,17,18,18a,19,20,21,22-hexadecahydro-15H-oxazolo[4′,5′:5,6]benzo[1,2-p]pyrazino[2,1-f][1]oxa[4,7,10,14]tetraazacycloheptadecine-8-carboxamide], the EC50 was 269 nM and the Emax was 217%.
On to `CCOc1cccc(CCNC(=O)[C@@H]2CC(=O)N(C)[C@@H](CC(C)C)C(=O)N3CCN(CC4CC4)C[C@@H]3C(=O)N[C@H](Cc3ccccc3)COc3ccc4nc(C)oc4c3C(=O)N2)c1` [Example 427, (8S,12S,18aR,21R)-21-benzyl-17-(cyclopropylmethyl)-N-(3-ethoxyphenethyl)-12-isobutyl-4,11-dimethyl-6,10,13,19-tetraoxo-6,7,8,9,10,11,12,13,16,17,18,18a,19,20,21,22-hexadecahydro-15H-oxazolo[4′,5′:5,6]benzo[1,2-p]pyrazino[2,1-f][1]oxa[4,7,10,14]tetraazacycloheptadecine-8-carboxamide], for which the EC50 is 248 nM and the Emax came out at 274%.
On to `Cc1nc2ccc3c(c2o1)C(=O)N[C@H](C(=O)NCCc1ccc(-n2nccn2)cc1)CC(=O)N(C)[C@@H](CC(C)C)C(=O)N1CCN(CC2CC2)C[C@@H]1C(=O)N[C@H](Cc1ccccc1)CO3` [Example 428, (8S,12S,18aR,21R)-N-(4-(2H-1,2,3-triazol-2-yl)phenethyl)-21-benzyl-17-(cyclopropylmethyl)-12-isobutyl-4,11-dimethyl-6,10,13,19-tetraoxo-6,7,8,9,10,11,12,13,16,17,18,18a,19,20,21,22-hexadecahydro-15H-oxazolo[4′,5′:5,6]benzo[1,2-p]pyrazino[2,1-f][1]oxa[4,7,10,14]tetraazacycloheptadecine-8-carboxamide], for which the EC50 was determined as 614 nM and the Emax stood at 218%.
As for `Cc1cc(CCNC(=O)[C@@H]2CC(=O)N(C)[C@@H](CC(C)C)C(=O)N3CCCC[C@@H]3C(=O)N[C@H](Cc3ccccc3)COc3ccc4c(cnn4C)c3C(=O)N2)on1` [Example 429, (8S,12S,18aR,21R)-21-benzyl-12-isobutyl-3,11-dimethyl-N-(2-(3-methylisoxazol-5-yl)ethyl)-6,10,13,19-tetraoxo-6,7,8,9,10,11,12,13,16,17,18,18a,19,20,21,22-hexadecahydro-3H,15H-pyrido[2′,11:6,7][1]oxa[4,7,10,14]tetraazacycloheptadecino[16,17-e]indazole-8-carboxamide], the EC50 was 606 nM and the Emax is 224%.
Take `CC(C)C[C@H]1C(=O)N(C)CC(=O)N[C@H](Cc2ccccc2)COc2nc3ccccn3c2C(=O)N[C@H](C(=O)NCCc2ccc3c(c2)OCO3)CC(=O)N1C` [Example 430, (3R,9S,13S)-N-(2-(benzo[d][1,3]dioxol-5-yl)ethyl)-3-benzyl-9-isobutyl-7,10-dimethyl-5,8,11,15-tetraoxo-2,3,4,5,6,7,8,9,10,11,12,13,14,15-tetradecahydropyrido[2′,11:2,3]imidazo[4,5-p][1]oxa[4,7,10,14]tetraazacycloheptadecine-13-carboxamide]: the EC50 is 964 nM and the maximal response (Emax) stood at 194%.
For `COCCCN1C(=O)[C@H](CC(C)C)N(C)C(=O)C[C@@H](C(=O)NCCc2cccc(OC)c2)NC(=O)c2c(ccc3ccccc23)OC[C@@H](Cc2ccccc2)NC(=O)[C@H]1C` [Example 431, (3S,7S,10R,13R)-13-benzyl-7-isobutyl-N-(3-methoxyphenethyl)-9-(3-methoxypropyl)-6,10-dimethyl-1,5,8,11-tetraoxo-1,2,3,4,5,6,7,8,9,10,11,12,13,14-tetradecahydronaphtho[1,2-p][1]oxa[4,7,10,14]tetraazacycloheptadecine-3-carboxamide], the EC50 is 208 nM and the Emax was determined as 281%.
For `Cc1cc(CCNC(=O)[C@@H]2CC(=O)N(C)[C@@H](CC3CCCC3)C(=O)N(C)C3(CC3)C(=O)N[C@H](Cc3ccccc3)COc3cnc4ccccc4c3C(=O)N2)on1` [Example 432, (3′S,7′S,13′R)-13′-benzyl-7′-(cyclopentylmethyl)-6′,9′-dimethyl-N-(2-(3-methylisoxazol-5-yl)ethyl)-1′,5′,8′,11′-tetraoxo-2′,3′,4′,5′,6′,7′,8′,9′,11′,12′,13′,14′-dodecahydro-1′H-spiro[cyclopropane-1,10′-[1]oxa[4,7,10,14]tetraazacycloheptadecino[17,16-c]quinoline]-3′-carboxamide], the EC50 came to 474 nM and the Emax is 413%.
With `COc1cccc(CCNC(=O)[C@@H]2CC(=O)N(C)[C@@H](CC(C)C)C(=O)N(C)C3(CC3)C(=O)N[C@H](Cc3ccccc3)COc3cnc4ccccc4c3C(=O)N2)c1` [Example 433, (3′S,7′S,13′R)-13′-benzyl-7′-isobutyl-N-(3-methoxyphenethyl)-6′,9′-dimethyl-1′,5′,8′,11′-tetraoxo-2′,3′,4′,5′,6′,7′,8′,9′,11′,12′,13′,14′-dodecahydro-1′H-spiro[cyclopropane-1,10′-[1]oxa[4,7,10,14]tetraazacycloheptadecino[17,16-c]quinoline]-3′-carboxamide], the EC50 was found to be 167 nM and the Emax was 344%.
With `Cc1cc(CCNC(=O)[C@@H]2CC(=O)N(C)[C@@H](CC(C)C)C(=O)N(C)C3(CC3)C(=O)N[C@H](Cc3ccccc3)COc3cnc4ccccc4c3C(=O)N2)on1` [Example 434, (3′S,7′S,13′R)-13′-benzyl-7′-isobutyl-6′,9′-dimethyl-N-(2-(3-methylisoxazol-5-yl)ethyl)-1′,5′,8′,11′-tetraoxo-2′,3′,4′,5′,6′,7′,8′,9′,11′,12′,13′,14′-dodecahydro-1′H-spiro[cyclopropane-1,10′-[1]oxa[4,7,10,14]tetraazacycloheptadecino[17,16-c]quinoline]-3′-carboxamide], the EC50 is 664 nM and the maximum response (Emax) worked out at 327%.
On to `Cc1cc(CCNC(=O)[C@@H]2CC(=O)N(C)[C@@H](CC3CCCC3)C(=O)N3CCOC[C@@H]3C(=O)N[C@H](Cc3ccccc3)COc3ccc4nc(C)oc4c3C(=O)N2)on1` [Example 435], for which the EC50 is 895 nM and the Emax turned out to be 119%.
The matching figures for `Cc1cc(CCNC(=O)[C@@H]2CC(=O)N(C)[C@@H](CC3CCCC3)C(=O)N3CCCC[C@@H]3C(=O)N[C@H](Cc3ccccc3)COc3ccc4nc(C)oc4c3C(=O)N2)on1` [Example 436, (8S,12S,18aR,21R)-21-benzyl-12-(cyclopentylmethyl)-4,11-dimethyl-N-(2-(3-methylisoxazol-5-yl)ethyl)-6,10,13,19-tetraoxo-6,7,8,9,10,11,12,13,16,17,18,18a,19,20,21,22-hexadecahydro-15H-oxazolo[4′,5′:5,6]benzo[1,2-p]pyrido[2,1-f][1]oxa[4,7,10,14]tetraazacycloheptadecine-8-carboxamide]: 458 nM and 300%.
On to `Cc1cc(CCNC(=O)[C@@H]2CC(=O)N(C)[C@@H](CC3CCCC3)C(=O)N3CCCC[C@H]3C(=O)N[C@H](Cc3ccccc3)COc3ccc4nc(C)oc4c3C(=O)N2)on1` [Example 437, (8S,12S,18aS,21R)-21-benzyl-12-(cyclopentylmethyl)-4,11-dimethyl-N-(2-(3-methylisoxazol-5-yl)ethyl)-6,10,13,19-tetraoxo-6,7,8,9,10,11,12,13,16,17,18,18a,19,20,21,22-hexadecahydro-15H-oxazolo[4′,5′:5,6]benzo[1,2-p]pyrido[2,1-f][1]oxa[4,7,10,14]tetraazacycloheptadecine-8-carboxamide], for which the EC50 came out at 844 nM and the Emax came out at 159%.
On to `COc1cccc(CCNC(=O)[C@@H]2CC(=O)N(C)[C@@H](CC(C)C)C(=O)N(C)C3(CC3)C(=O)N[C@H](Cc3ccccc3)COc3ccnc(OC)c3C(=O)N2)c1` [Example 438, (3′R,9′S,13′S)-3′-benzyl-9′-isobutyl-16′-methoxy-N-(3-methoxyphenethyl)-7′,10′-dimethyl-5′,8′,11′,15′-tetraoxo-2′,3′,4′,5′,8′,9′,10′,11′,12′,13′,14′,15′-dodecahydro-7′H-spiro[cyclopropane-1,6′-pyrido[3,4-p][1]oxa[4,7,10,14]tetraazacycloheptadecine]-13′-carboxamide], for which the EC50 is 474 nM and the Emax amounted to 422%.
Take `COc1cccc(CCNC(=O)[C@@H]2CC(=O)N(C)[C@@H](CC(C)C)C(=O)N(C)C3(CC3)C(=O)N[C@H](Cc3ccccc3)COc3cnc4c(F)cccc4c3C(=O)N2)c1` [Example 439, (3′S,7′S,13′R)-13′-benzyl-18′-fluoro-7′-isobutyl-N-(3-methoxyphenethyl)-6′,9′-dimethyl-1′,5′,8′,11′-tetraoxo-2′,3′,4′,5′,6′,7′,8′,9′,11′,12′,13′,14′-dodecahydro-1′H-spiro[cyclopropane-1,10′-[1]oxa[4,7,10,14]tetraazacycloheptadecino[17,16-c]quinoline]-3′-carboxamide]: the EC50 stood at 253 nM and the Emax turned out to be 345%.

(Values after patent US20240208992A1, “MACROCYCLES AS CFTR MODULATORS” (Idorsia Pharmaceuticals Ltd, priority 2021, published 2024).)
